According to patent US20240415858A1, “PROMOTING MYELINATION BY N-ACETYLGLUCOSAMINE AND MODULATION OF N-GLYCAN BRANCHING” (THE REGENTS OF THE UNIVERSITY OF CALIFORNIA, priority 2021, published 2024):

Legend:
[1] = tested on: mouse neural stem cells (NSC) derived from the medial ganglionic eminence of E12.5 mouse embryos; assay: Oligodendrogenesis from mouse neural stem cells in vitro (flow cytometry, immunofluorescence); format: cell-based
Source text: Mice were bred and utilized as approved by the University of California, Irvine Institutional Animal Care and Use Committee. Dorsal forebrain cortical tissue was dissected from the medial ganglionic eminence (MGE) at embryonic day 12.5 (E12) of CD1 mice (Charles River) or Mgat5−/− C57BL/6 mice and their wildtype littermates and placed in dissection buffer comprising PBS, 0.6% glucose, and 50 U/mL Pen/Strep. Tissue from multiple embryos within the same litter were pooled, and a subsequent culture from a single litter was considered a biological repeat. The tissue was dissociated using 0.05% Trypsin-EDTA at 37° C. for 10 min, followed by treatment with soybean trypsin inhibitor (Life Technologies). Dissociated cells were re-suspended in proliferation medium comprising DMEM, 1× B27, 1× N2, 1 mM sodium pyruvate, 2 mM L-glutamine, 1 mM N-acetylcysteine, 20 ng/mL EGF (PeproTech), 10 ng/mL bFGF (PeproTech), and 2 μg/mL heparin and seeded at 150,000 cells/mL (non-tissue culture treated plastic plates) and grown as non-adherent spheres. Cell cultures were passaged approximately every 3 days using enzyme-free NeuroCult Chemical Dissociation Kit (Mouse) (StemCell Technologies). Cultures were passaged at least once prior to experimental use. For experiments, passaged cells were cultured in proliferation media (bFGF and EGF) or differentiation media (bFGF (10 ng/ml) and PDGF-AA (10 ng/ml); Life technologies) for 48 hours with or without the presence of GIcNAc (Ultimate Glucosamine, Wellesley Therapeutics) or kifunensine (GlycoSyn). Neurospheres were dispersed using the enzyme-free NeuroCult kit before being analyzed by flow cytometry using one or more of the following antibodies: anti-CD140a/PDGF-RA PE conjugate (1:200, A15785, Molecular Probes), anti-04 Alexa Fluor 488 conjugated (1:200, FAB1326G, RnD systems), Anti-GaIC Alexa Fluor 647 1:200, MAB342-AF647, Millipore), Anti-Olig2 (1:200, AB9610, Millipore) with anti-rabbit Alexa Fluor 488 (1:200, thermofisher).
(§1) For neural stem cell (NSC) immunofluorescence, whole neurospheres were seeded onto laminin-coated coverslips (Neuvitro) in proliferation medium. After 24 hours, proliferation media was removed and replaced with differentiation medium (same components as proliferation medium but excluding EGF, bFGF, and heparin) to induce differentiation. For analysis of mouse brains, brains were incubated in 30% sucrose for at least 72 hours, embedded in OCT (Tissue-tek), frozen for at least 48 hours at −80° C., and then cut at 40 microns on a cryostat. Multiple sections from −1 bregma to −2.5 bregma were then stained with antibodies for MBP (1:100; MAB386, Millipore), Olig2 (1:200; AB9610, Millipore), CC1 (1:100; OP90, Millipore), degraded MBP (1:200, AB5864, Millipore) and Amyloid Precursor Protein (APP, 1:200; clone 22C11). After overnight incubation with primary antibody, tissues were washed and incubated with secondary antibodies: goat anti-rat Alexa-fluor 488 (1:200, Thermofisher), goat anti-rabbit TxRd (1:200, Thermofisher). APP is a marker for neuro-axonal damage while co-staining for CC1 and Olig2 are markers of mature oligodendrocytes. In order to examine the amount of myelin, slices were incubated in Fluoromyelin (1:300; F34651, Thermofisher) for 45 minutes. Images were acquired on a Keyence fluorescence microscope. Mean fluorescence intensity of the medial corpus callosum was measured using ImageJ.
Oligodendrogenesis were examined in vitro using mouse neural stem cells (NSC) derived from the medial ganglionic eminence of E12.5 mouse embryos, where OPC's first appear. […] Consistent with increased PDGFRα surface expression, GIcNAc also promoted pre-oligodendrocyte differentiation as evidenced by augmented expression of Oligodendrocyte Transcription Factor (OLIG2) and increased numbers of 04 and GaIC positive cells (FIGS. 1A, 1B and 1C, FIGS. 5B and 5C). […]

[2] = Phase 1 trial: serum HexNAc levels by LC-MS/MS; format: in vivo, human; settings: 6 g and 12 g cohorts, after stopping oral GIcNAc
[3] = mouse, in vivo, po
[4] = tested on: newborn PL/J mice; assay: Primary myelination in newborn pups, GIcNAc given to pregnant/lactating mothers in drinking water; format: in vivo, mouse
Procedure: GIcNAc treatment of mouse pups—GIcNAc (1 mg/mL) in drinking water was provided to pregnant PLJ mothers or mothers who recently delivered pups and were nursing their young. After the treatment period, pups were anesthetized with isoflurane and cardiac perfused with PBS. Pup and fetal brains were removed and homogenized by trituration using glass pipettes in PBS with 5% Fetal Bovine Serum (FBS).
Cells were then stained with antibodies and analyzed by flow cytometry using antibodies described herein. For immunofluorescence analysis of pup brains, pups were quickly decapitated, brains harvested and fixed in 4% paraformaldehyde overnight.
as §1
To assess whether oral GIcNAc promotes oligodendrogenesis in vivo in the absence of inflammation, primary myelination was examined in mice during the early perinatal period. GIcNAc or vehicle was provided to pregnant/lactating female mice from E12.5, postnatal day 3 (P3) or P5 through to P8. Indeed, oral GIcNAc increased N-glycan branching in PDGFRα^+ cells as well as the number of pre-oligodendrocytes (PDGFRα^+O4^+), immature oligodendrocytes (PDGFRα-O4^+) and mature oligodendrocytes (MBP*), with little effect on the number of OPC's ([…]) (FIG. 2B and FIG. 6A).

[5] = NSCs, 48 hrs, growth media lacking exogenous differentiation cytokines
[6] = mothers treated from E12.5, P3 or P5 to P8, pup brains

## CC(=O)N[C@H]1C(O)O[C@H](CO)[C@@H](O)[C@@H]1O (some centres unmarked) [GIcNAc, N-acetylglucosamine]
[1]; GIcNAc combined with PDGF-AA (differentiation media)
  NSC differentiation to O4+ pre-oligodendrocytes: enhanced
[1]; GIcNAc in growth media vs differentiation media with exogenous PDGF-AA
  initiating oligodendrogenesis, compared with PDGF-AA differentiation media: more potent than differentiation media containing exogenous PDGF-AA
[1]; NSCs, 48 hrs, growth media
  pre-oligodendrocyte differentiation (OLIG2 expression, numbers of O4 and GalC positive cells): promoted
[1]; [5]
  N-glycan branching (L-PHA flow cytometry): significantly increased
  PDGFRα surface expression: significantly increased
[1]; NSCs, growth media
  development of pre-oligodendrocytes (PDGFRα O4+), double staining: promoted development
  number of OPC's (PDGFRα+O4−): no change
[2]
  serum HexNAc levels during the washout period: rapidly declined back to baseline
[3]
  crossing of the blood brain barrier: able to cross the blood brain barrier
  secretion in breast milk: secreted at sufficient levels in breast milk to raise UDP-GIcNAc in the brains of suckling pups
[4]; P3-8
  primary myelination: staining for myelin (fluoromyelin): increased
  primary myelination: staining for myelin basic protein (MBP): increased
[4]; [6]
  N-glycan branching in PDGFRα+ cells: increased
  number of OPC's (PDGFRα−O4+): little effect
  number of immature oligodendrocytes (PDGFRα-O4+): increased
  number of mature oligodendrocytes (MBP): increased
  number of pre-oligodendrocytes (PDGFRα+O4+): increased
